Results from patent US20060025474A1, “Bisphenyl compounds useful as vitamin D3 receptor agonists” (priority 2004, published 2006).

test system: ECAC2 mRNA in Caco-2 cells; assay type: cell-based
Description: The mRNA Expression Assay of ECAC2 in Caco-2 Cells
The dispersed cells were plated in 48-well plate at a concentration of 6.3×10^4 cells/well and incubated for 4 days at 37° C. The culture medium (Dulbecco's Modified Eagle Medium (D-MEM) without NaHCO3 with 44 mM NaHCO3, 1 mM non-essential amino acids, and 2 mM L-glutamine, 90%; fetal bovine serum, 10%) was then replaced with the same medium containing various concentrations of LG190178 (the compound disclosed in WO00/10958 and the corresponding U.S. Pat. No. 6,218,430 B1) or the compounds of the present invention, and cells were cultured for 1 day at 37° C. The culture medium containing the compounds was changed twice per day.
Total RNA Isolation from Caco-2 Cell
Total RNA was isolated from Caco-2 cell following ABI PRISM™ 6100 Nucleic Acid PrepStation protocol from Applied Biosystems.
Real Time RT-PCR Assay of ECAC2
ECAC2 mRNA expression was determined using TaqMan One-step RT-PCR Master Mix Reagents Kit and PRISM7000 systems from Applied Biosystems.
Primer information and cycle conditions are 1)ECAC2, forward 5′-[…]-3′, reverse 5′-GTCCTCTGTCTGGMGATGA-3′, Taqman probe 5′-[…]-3′, 55 cycles, annealing temperature (Ta)=60° C.; 2)GAPDH, forward 5′-GMGGTGMGGTCGGAGTC-3′, reverse 5′-GMGATGGTGATGGGATTTC-3′, Taqman probe 5′-[…]-3′, 55 cycles, Ta=60° C. ECAC2 mRNA values were normalized for the expression of GAPDH mRNA within each sample.
Comparison of ECAC2 mRNA Value
The EC50 values of ECAC2 mRNA values were analyzed by Emax models. The ECAC2 mRNA ratio was calculated as the ratio of the EC50 value of the compounds to that of LG190178. ECAC2 is a channel-like transporter mediating intestinal calcium absorption. It is described in J Biol Chem. Aug. 6, 1999; 274(32):22739-46 for example.

Point of comparison: `CCC(CC)(c1ccc(C#CC(O)C(C)(C)C)c(C)c1)c1ccc(OC[C@@H](O)CO)c(C)c1` (stereo partly drawn) [Example 66, 3-(4-{1-ethyl-1-[4-(3-hydroxy-4,4-dimethyl-pent-1-ynyl)-3-methyl-phenyl]-propyl}-2-methyl-phenoxy)-propane-1,2(S)-diol], “ECaC-2 mRNA induction activity in Caco-2 cells” value 126%. Against it:
- CCC(O)(/C=C/c1ccc(C(CC)(CC)c2ccc(OCCCCC(=O)O)c(C)c2)cc1C)CC [Example 81, 5-(4-{1-Ethyl-1-[4-((E)-3-ethyl-3-hydroxy-pent-1-enyl)-3-methyl-phenyl]-propyl}-2-methyl-phenoxy)-pentanoic acid] — lower, 102%
- CCC(O)(/C=C/c1ccc(C(CC)(CC)c2ccc(OCc3ccc(C(=O)O)cc3)c(C)c2)cc1C)CC [Example 147, 4-(4-{I-Ethyl-1-[4-((E)-3-ethyl-3-hydroxy-pent-1-enyl)-3-methyl-phenyl]-propyl}-2-methyl-phenoxymethyl)-benzoic acid] — lower, 75%
- CCC(CC)(c1ccc(/C=C/C(O)(C(F)(F)F)C(F)(F)F)c(C)c1)c1ccc(OCC(CO)CO)c(C)c1 [Example 78, 2-(4-{1-ethyl-1-[3-methyl-4-((E)-4,4,4-trifluoro-3-hydroxy-3-trifluoromethyl-but-1-enyl)-phenyl]-propyl}-2-methyl-phenoxymethyl)-propane-1,3-diol] — higher, 6659%
- CCC(O)(/C=C/c1ccc(C(CC)(CC)c2ccc(OCC(=O)CCC(=O)O)c(C)c2)cc1C)CC [Example 198, (E)-5-(4-{1-Ethyl-1-[4-(3-ethyl-3-hydroxy-pent-1-enyl)-3-methyl-phenyl]-propyl}-2-methyl-phenoxy)-4-oxo-pentanoic acid] — higher, 271%
- CCC(CC)(c1ccc(/C=C/C(O)(C(F)(F)F)C(F)(F)F)c(C)c1)c1ccc(OC[C@@H](O)CC(=O)O)c(C)c1 [Example 52, (S)4-(4-{1-ethyl-1-[3-methyl-4-((E)A4,4,4-trifluoro-3-hydroxy-3-trifluoromethyl-but-1-enyl)-phenyl]-propyl}-2-methyl-phenoxy)-3-hydroxy-butyric acid] — higher, 1227%
- CCC(CC)(c1ccc(/C=C/C(O)(C(F)(F)F)C(F)(F)F)c(C)c1)c1ccc(OCCCCC(=O)O)c(C)c1 [Example 84, 5-(4-{1-ethyl-1-[3-methyl-4-((E)-4,4,4-trifluoro-3-hydroxy-3-trifluoromethyl-but-1-enyl)-phenyl]-propyl}-2-methyl-phenoxy)-pentanoic acid] — higher, 1843%
- CCC(CC)(c1ccc(/C=C/C(O)(C(F)(F)F)C(F)(F)F)c(C)c1)c1ccc(OC[C@H]2CCC(=O)O2)c(C)c1 [Example 48, (R)-5-(4-{1-ethyl-1-[3-methyl-4-((E)-4,4,4-trifluoro-3-hydroxy-3-trifluoromethyl-but-1-enyl)-phenyl]-propyl}-2-methyl-phenoxymethyl)-dihydro-furan-2-one] — higher, 519%
- CCC(CC)(c1ccc(/C=C/C2(O)CCCC2)c(C)c1)c1ccc(OC[C@@H](O)CCC(=O)O)c(C)c1 [Example 35, (S)-5-[4-(1-ethyl-1-{4-[(E)-2-(1-hydroxy-cyclopentyl)-vinyl]-3-methyl-phenyl}-propyl)-2-methyl-phenoxy]-4-hydroxy-pentanoic acid] — higher, 538%
- CCC(CC)(c1ccc(/C=C/C(O)(C(F)(F)F)C(F)(F)F)c(C)c1)c1ccc(OC[C@@H](O)CCC(=O)O)c(C)c1 [Example 30, (S)-5-(4-{1-ethyl-1-[3-methyl-4-((E)-4,4,4-trifluoro-3-hydroxy-3-trifluoromethyl-but-1-enyl)-phenyl]-propyl}-2-methyl-phenoxy)-4-hydroxy-pentanoic acid] — higher, 1777%
- CCC(CC)(c1ccc(C#CC(O)(C(F)(F)F)C(F)(F)F)c(C)c1)c1ccc(OC[C@H](O)CCCO)c(C)c1 [Example 152, (R)-5-(4-{1-Ethyl-1-[3-methyl-4-(4,4,4-trifluoro-3-hydroxy-3-trifluoromethyl-but-1-ynyl)-phenyl]-propyl}-2-methyl-phenoxy)-pentane-1,4-diol] — higher, 586%
- CCC(CC)(c1ccc(/C=C/C(O)(C(F)(F)F)C(F)(F)F)c(C)c1)c1ccc(OC[C@H](O)CC(=O)O)c(C)c1 [Example 54, (R)-4-(4-{1-ethyl-1-[3-methyl4-((E)-4,4,4-trifluoro-3-hydroxy-3-trifluoromethyl-but-1-enyl)-phenyl]-propyl}-2-methyl-phenoxy)-3-hydroxy-butyric acid] — higher, 172%
- CCc1cc(C(CC)(CC)c2ccc(C(=O)N[C@@H](C)C(=O)O)s2)ccc1OCC(C)(O)C(C)(C)C (single isomer, unassigned) [Compound C, reference compound] — lower, 34%
- CCC(CC)(c1ccc(C#CC(O)(C(F)(F)F)C(F)(F)F)c(C)c1)c1ccc(OC[C@@H](O)CCC(=O)O)c(C)c1 [Example 2, (S)-5-(4-{1-ethyl-1-[3-methyl-4-(4,4,4-trifluoro-3-hydroxy-3-trifluoromethyl-but-1-ynyl)-phenyl]-propyl}-2-methyl-phenoxy)-4-hydroxy-pentanoic acid] — lower, 49%
- CCC(CC)(c1ccc(/C=C/C(O)(C(F)(F)F)C(F)(F)F)c(C)c1)c1ccc(OC[C@@H]2CCCO2)c(C)c1 [Example 157, (E)4-[4-(1-Ethyl-1-{3-methyl-4-[(S)-1-(tetrahydro-furan-2-yl)methoxy]-phenyl}-propyl)-2-methyl-phenyl]-1,1,1-trifluoro-2-trifluoromethyl-but-3-en-2-ol] — higher, 1647%
- CCC(CC)(c1ccc(C#CC(O)(C(F)(F)F)C(F)(F)F)c(C)c1)c1ccc(OC[C@H](O)CCCC(=O)O)c(C)c1 [Example 60, (R)-6-(4-{1-ethyl-1-[3-methyl4-(4,4,4-trifluoro-3-hydroxy-3-trifluoromethyl-but-1-ynyl)-phenyl]-propyl}-2-methyl-phenoxy)-5-hydroxy-hexanoic acid] — higher, 235%
- CCC(O)(/C=C/c1ccc(C(CC)(CC)c2ccc(OC[C@@H](O)CO)c(C)c2)cc1C)CC [Example 64, (S)-3-(4-{1-ethyl-1-[4-((E)-3-ethyl-3-hydroxy-pent-1-enyl)-3-methyl-phenyl]-propyl}-2-methyl-phenoxy)-propane-1,2-diol] — lower, 90%
- CCC(CC)(c1ccc(/C=C/C(O)C(C)(C)C)c(C)c1)c1ccc(OCC(CO)CO)c(C)c1 (stereo not shown) [Example 75, 2-(4-{1-ethyl-1-[4-((E)-3-hydroxy-4,4-dimethyl-pent-1-enyl)-3-methyl-phenyl]-propyl}-2-methyl-phenoxymethyl)-propane-1,3-diol] — higher, 309%

With `CCC(CC)(c1ccc(/C=C/C(O)(C(F)(F)F)C(F)(F)F)c(C)c1)c1ccc(OC[C@@H](O)CO)c(C)c1` [Example 69, (S)-3-(4-{1-ethyl-1-[3-methyl-4-((E)-4,4,4-trifluoro-3-hydroxy-3-trifluoromethyl-but-1-enyl)-phenyl]-propyl}-2-methyl-phenoxy)-propane-1,2-diol] the “ECaC-2 mRNA induction activity in Caco-2 cells” value was over 10000%.
